According to US20220304970A1, “LIPOSOMIAL EYE DROPS SOLUTION AND USES THEREOF FOR THE TREATMENT OF DRY EYE SYNDROME” (Dr. Rolf Lambert Pharma-Consulting GmbH, priority 2018, published 2022):

Experiment: Stability to steam sterilization
Conditions: 121° C. at 1·10^5 Pa (1 atm) for 15 minutes

stability to sterilization: not stable
Structure (SMILES): CCCCCCCCCCCCCCCC(=O)OC/C=C(C)/C=C/C=C(C)/C=C/C1=C(C)CCCC1(C)C [Vitamin A Palmitate, Retinyl Palmitate]
